According to US10266537B2, “3-acetylenyl-pyrazole-pyrimidine derivative, and preparation method therefor and uses thereof” (Si Chuan University, priority 2015, dated 2019):
pIC50: −log10 of the molar value. Like-named read-outs stand apart in the source and are kept apart here.

How the values were obtained:
[1] = target: c-Src(T341M) (Homo sapiens (Human), UniProt P12931, T341M); assay: Kinase inhibition assay (KinaseProfiler, 33P-ATP); assay type: biochemical; settings: c-Src(T341M); ATP at Km
[2] = target: c-RAF (Homo sapiens (Human), UniProt P04049); assay: Kinase inhibition assay (KinaseProfiler, 33P-ATP); assay type: biochemical; settings: c-RAF(h); compound at 10 μM; read-out: The percentage of the remaining active protein
[3] = target: Fyn (Homo sapiens (Human), UniProt P06241); assay: Kinase inhibition assay (KinaseProfiler, 33P-ATP); assay type: biochemical
[4] = target: Blk (Homo sapiens (Human), UniProt P51451); assay: Kinase inhibition assay (KinaseProfiler, 33P-ATP); assay type: biochemical; settings: Blk; ATP at Km
[5] = target: FGFR1 (Homo sapiens (Human), UniProt P11362); assay: Kinase inhibition assay (KinaseProfiler, 33P-ATP); assay type: biochemical; settings: FGFR1; ATP at Km
[6] = target: EphB2 (Homo sapiens (Human), UniProt P29323); assay: Kinase inhibition assay (KinaseProfiler, 33P-ATP); assay type: biochemical; settings: EphB2(h); compound at 10 μM; read-out: The percentage of the remaining active protein
[7] = target: DDR2 (Homo sapiens (Human), UniProt Q16832); assay: Kinase inhibition assay (KinaseProfiler, 33P-ATP); assay type: biochemical; settings: DDR2; ATP at Km
[8] = target: Btk (Homo sapiens (Human), UniProt Q06187); assay: Kinase inhibition assay (KinaseProfiler, 33P-ATP); assay type: biochemical
[9] = target: IKKβ (Homo sapiens (Human), UniProt O14920); assay: Kinase inhibition assay (KinaseProfiler, 33P-ATP); assay type: biochemical; settings: IKKβ; ATP at Km
[10] = target: PDGFRα (Homo sapiens (Human), UniProt P16234); assay: Kinase inhibition assay (KinaseProfiler, 33P-ATP); assay type: biochemical
[11] = target: Tie2 (Homo sapiens (Human), UniProt Q02763); assay: Kinase inhibition assay (KinaseProfiler, 33P-ATP); assay type: biochemical; settings: Tie2 (h); compound at 10 μM; read-out: The percentage of the remaining active protein
[12] = target: ARK5(h) (Homo sapiens (Human), UniProt O60285); assay: Kinase inhibition assay (KinaseProfiler, 33P-ATP); assay type: biochemical; settings: compound at 10 μM, read-out: The percentage of the remaining active protein
[13] = target: CHK1(h) (Homo sapiens (Human), UniProt O14757); assay: Kinase inhibition assay (KinaseProfiler, 33P-ATP); assay type: biochemical; settings: compound at 10 μM, read-out: The percentage of the remaining active protein
[14] = target: Fer(h) (Homo sapiens (Human), UniProt P16591); assay: Kinase inhibition assay (KinaseProfiler, 33P-ATP); assay type: biochemical; settings: compound at 10 μM, read-out: The percentage of the remaining active protein
[15] = target: Fms(h) (Homo sapiens (Human), UniProt P07333); assay: Kinase inhibition assay (KinaseProfiler, 33P-ATP); assay type: biochemical; settings: compound at 10 μM, read-out: The percentage of the remaining active protein
[16] = target: GSK3β(h) (Homo sapiens (Human), UniProt P49841); assay: Kinase inhibition assay (KinaseProfiler, 33P-ATP); assay type: biochemical; settings: compound at 10 μM, read-out: The percentage of the remaining active protein
[17] = target: mTOR(h) (Homo sapiens (Human), UniProt P42345); assay: Kinase inhibition assay (KinaseProfiler, 33P-ATP); assay type: biochemical; settings: compound at 10 μM, read-out: The percentage of the remaining active protein
[18] = target: PAK1(h) (Homo sapiens (Human), UniProt Q13153); assay: Kinase inhibition assay (KinaseProfiler, 33P-ATP); assay type: biochemical; settings: compound at 10 μM, read-out: The percentage of the remaining active protein
[19] = target: Pim-1(h) (Homo sapiens (Human), UniProt P11309); assay: Kinase inhibition assay (KinaseProfiler, 33P-ATP); assay type: biochemical; settings: compound at 10 μM, read-out: The percentage of the remaining active protein
[20] = target: PKA(h) (Homo sapiens (Human), UniProt P17612); assay: Kinase inhibition assay (KinaseProfiler, 33P-ATP); assay type: biochemical; settings: compound at 10 μM, read-out: The percentage of the remaining active protein
[21] = target: PKBβ(h) (Homo sapiens (Human), UniProt P31751); assay: Kinase inhibition assay (KinaseProfiler, 33P-ATP); assay type: biochemical; settings: compound at 10 μM, read-out: The percentage of the remaining active protein
[22] = target: PKCα(h) (Homo sapiens (Human), UniProt P17252); assay: Kinase inhibition assay (KinaseProfiler, 33P-ATP); assay type: biochemical; settings: compound at 10 μM, read-out: The percentage of the remaining active protein
[23] = target: Tec(h) activated (Homo sapiens (Human), UniProt P42680); assay: Kinase inhibition assay (KinaseProfiler, 33P-ATP); assay type: biochemical; settings: compound at 10 μM, read-out: The percentage of the remaining active protein
[24] = target: PI3 Kinase a(h) (Homo sapiens (Human), UniProt P42336); assay: Kinase inhibition assay (KinaseProfiler, 33P-ATP); assay type: biochemical; settings: PI3 Kinase a(h); compound at 10 μM; read-out: The percentage of the remaining active protein
[25] = system: Miapaca-2; assay: Cell proliferation inhibition assay (MTT); assay type: cell-based; settings: Homo sapiens, MIA PaCa-2, 72 h, read-out: Proliferation inhibitory activity IC50
Method: The cells were seeded in 96-well plates with 200 μL of cell suspension per well and incubated overnight in a cell culture medium with a cell concentration of 1 2×10^4 cells/mL. The next day, the supernatant was discarded (the suspension cell was centrifuged before it) and the cells were treated with gradient concentrations of the test compound, respectively. […] After 72 hours, add 20 μL of MTT reagent at a concentration of 5 mg/mL per well. After incubation for 2-4 h, the supernatant was discarded and 150 μL of DMSO was added to each well. […] Relative cell proliferation inhibition rate=([MUT]-[MUT])×100%/[MUT]. The experiment was repeated at least 3 times. Experimental data were expressed as mean, data statistics using t test, P<0.05 for the difference was statistically significant.

[26] = system: MDA-MB-435; assay: Cell proliferation inhibition assay (MTT); assay type: cell-based, human
[27] = system: breast cancer cell line MDA-MB-231; assay type: in vivo; settings: mouse, in vivo
Method: When the tumors grew to volumes of 200 mm^3, all the mice were randomized into groups (6 mice for each group) and dosed with indicated compounds.
Observation indexes: mouse body weight and the tumor size were measured once every three days, the tumor volume is calculated (length×width^2×0.5).

[28] = target: c-Src(1-530) (Homo sapiens (Human), UniProt P12931); assay: Kinase inhibition assay (KinaseProfiler, 33P-ATP); settings: c-Src(1-530); ATP at Km
[29] = target: B-Raf (Homo sapiens (Human), UniProt P15056); assay: Kinase inhibition assay (KinaseProfiler, 33P-ATP)
[30] = target: EphA2 (Homo sapiens (Human), UniProt P29317); assay: Kinase inhibition assay (KinaseProfiler, 33P-ATP); settings: EphA2; ATP at Km
[31] = target: Bmx (Homo sapiens (Human), UniProt P51813); assay: Kinase inhibition assay (KinaseProfiler, 33P-ATP)
[32] = read-out: The percentage of the remaining active protein

Chain of Fyn (P06241 whole entry): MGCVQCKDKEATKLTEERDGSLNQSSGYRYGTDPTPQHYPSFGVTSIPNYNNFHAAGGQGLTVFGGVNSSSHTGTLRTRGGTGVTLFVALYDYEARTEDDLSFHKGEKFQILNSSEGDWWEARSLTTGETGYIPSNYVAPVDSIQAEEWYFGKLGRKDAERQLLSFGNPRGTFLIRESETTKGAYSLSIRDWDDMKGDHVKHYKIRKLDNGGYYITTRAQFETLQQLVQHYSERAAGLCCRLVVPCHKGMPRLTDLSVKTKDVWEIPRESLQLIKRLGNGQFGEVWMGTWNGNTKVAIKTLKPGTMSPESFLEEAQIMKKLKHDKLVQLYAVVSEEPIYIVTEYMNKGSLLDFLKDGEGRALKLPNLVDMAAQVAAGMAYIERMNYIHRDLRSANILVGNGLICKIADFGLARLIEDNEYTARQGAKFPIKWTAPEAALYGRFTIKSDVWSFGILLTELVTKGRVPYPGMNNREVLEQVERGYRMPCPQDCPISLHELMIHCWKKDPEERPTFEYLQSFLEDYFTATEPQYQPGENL
Chain of Bmx (P51813 whole entry): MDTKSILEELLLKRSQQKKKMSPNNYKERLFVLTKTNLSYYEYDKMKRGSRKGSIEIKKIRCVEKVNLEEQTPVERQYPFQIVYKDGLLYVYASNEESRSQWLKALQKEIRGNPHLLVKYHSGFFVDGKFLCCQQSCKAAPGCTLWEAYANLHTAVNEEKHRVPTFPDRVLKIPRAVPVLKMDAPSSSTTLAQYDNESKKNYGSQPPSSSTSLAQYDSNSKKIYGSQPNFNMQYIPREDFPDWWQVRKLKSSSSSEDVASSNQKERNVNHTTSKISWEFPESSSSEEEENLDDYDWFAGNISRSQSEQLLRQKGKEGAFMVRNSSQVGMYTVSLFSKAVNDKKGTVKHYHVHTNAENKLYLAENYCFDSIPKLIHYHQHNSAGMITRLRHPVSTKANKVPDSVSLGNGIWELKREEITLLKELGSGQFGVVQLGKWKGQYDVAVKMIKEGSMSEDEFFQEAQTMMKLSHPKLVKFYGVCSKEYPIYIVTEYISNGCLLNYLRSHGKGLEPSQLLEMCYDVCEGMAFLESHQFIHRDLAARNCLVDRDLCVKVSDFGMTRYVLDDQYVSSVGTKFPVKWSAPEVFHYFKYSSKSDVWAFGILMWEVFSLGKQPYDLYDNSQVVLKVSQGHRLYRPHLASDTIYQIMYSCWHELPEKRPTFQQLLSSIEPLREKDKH
Chain of Btk (Q06187 whole entry): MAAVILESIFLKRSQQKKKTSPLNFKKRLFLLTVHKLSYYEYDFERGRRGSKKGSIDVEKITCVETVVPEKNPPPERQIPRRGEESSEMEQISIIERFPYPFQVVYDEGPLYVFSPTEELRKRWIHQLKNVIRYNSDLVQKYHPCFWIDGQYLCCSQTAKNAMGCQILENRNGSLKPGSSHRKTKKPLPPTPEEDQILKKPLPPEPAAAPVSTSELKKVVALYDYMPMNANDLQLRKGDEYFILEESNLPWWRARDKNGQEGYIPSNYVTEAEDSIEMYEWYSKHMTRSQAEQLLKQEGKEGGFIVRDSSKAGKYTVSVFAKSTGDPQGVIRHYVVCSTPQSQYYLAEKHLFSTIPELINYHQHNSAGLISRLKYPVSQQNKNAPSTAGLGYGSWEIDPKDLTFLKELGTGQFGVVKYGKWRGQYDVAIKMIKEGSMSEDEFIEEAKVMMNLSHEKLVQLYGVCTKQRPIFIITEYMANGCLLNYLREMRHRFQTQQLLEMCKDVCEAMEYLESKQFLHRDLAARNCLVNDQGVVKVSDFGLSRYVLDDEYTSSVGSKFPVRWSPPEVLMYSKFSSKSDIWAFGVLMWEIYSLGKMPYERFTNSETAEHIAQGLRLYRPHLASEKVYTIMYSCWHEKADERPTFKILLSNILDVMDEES
Chain of PDGFRα (P16234 24-1089): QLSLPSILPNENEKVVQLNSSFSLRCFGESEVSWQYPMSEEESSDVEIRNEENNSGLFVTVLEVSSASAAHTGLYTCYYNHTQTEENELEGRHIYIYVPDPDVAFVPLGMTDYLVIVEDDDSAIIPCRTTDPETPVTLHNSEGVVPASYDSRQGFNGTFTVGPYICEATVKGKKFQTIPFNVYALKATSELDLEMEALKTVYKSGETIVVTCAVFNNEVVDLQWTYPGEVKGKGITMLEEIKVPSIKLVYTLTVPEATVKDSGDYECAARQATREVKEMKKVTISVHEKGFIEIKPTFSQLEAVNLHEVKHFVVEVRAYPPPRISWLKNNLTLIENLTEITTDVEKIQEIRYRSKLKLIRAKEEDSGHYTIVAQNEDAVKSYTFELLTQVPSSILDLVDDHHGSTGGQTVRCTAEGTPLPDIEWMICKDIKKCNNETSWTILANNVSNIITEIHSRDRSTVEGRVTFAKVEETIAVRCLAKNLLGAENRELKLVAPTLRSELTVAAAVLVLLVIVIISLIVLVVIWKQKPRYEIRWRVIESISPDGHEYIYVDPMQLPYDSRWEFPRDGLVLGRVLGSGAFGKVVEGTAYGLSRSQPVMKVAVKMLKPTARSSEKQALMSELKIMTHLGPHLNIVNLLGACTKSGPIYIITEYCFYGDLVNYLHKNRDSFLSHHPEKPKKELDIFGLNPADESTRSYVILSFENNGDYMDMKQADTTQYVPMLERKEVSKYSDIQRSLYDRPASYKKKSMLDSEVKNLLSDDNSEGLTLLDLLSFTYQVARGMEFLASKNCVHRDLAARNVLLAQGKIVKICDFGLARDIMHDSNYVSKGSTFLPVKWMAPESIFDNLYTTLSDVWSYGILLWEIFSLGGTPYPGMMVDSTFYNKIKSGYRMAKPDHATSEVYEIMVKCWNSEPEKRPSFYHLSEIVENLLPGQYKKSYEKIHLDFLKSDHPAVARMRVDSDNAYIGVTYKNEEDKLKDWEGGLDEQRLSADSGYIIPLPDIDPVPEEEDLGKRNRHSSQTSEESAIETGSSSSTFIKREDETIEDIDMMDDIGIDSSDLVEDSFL
Chain of B-Raf (P15056 whole entry): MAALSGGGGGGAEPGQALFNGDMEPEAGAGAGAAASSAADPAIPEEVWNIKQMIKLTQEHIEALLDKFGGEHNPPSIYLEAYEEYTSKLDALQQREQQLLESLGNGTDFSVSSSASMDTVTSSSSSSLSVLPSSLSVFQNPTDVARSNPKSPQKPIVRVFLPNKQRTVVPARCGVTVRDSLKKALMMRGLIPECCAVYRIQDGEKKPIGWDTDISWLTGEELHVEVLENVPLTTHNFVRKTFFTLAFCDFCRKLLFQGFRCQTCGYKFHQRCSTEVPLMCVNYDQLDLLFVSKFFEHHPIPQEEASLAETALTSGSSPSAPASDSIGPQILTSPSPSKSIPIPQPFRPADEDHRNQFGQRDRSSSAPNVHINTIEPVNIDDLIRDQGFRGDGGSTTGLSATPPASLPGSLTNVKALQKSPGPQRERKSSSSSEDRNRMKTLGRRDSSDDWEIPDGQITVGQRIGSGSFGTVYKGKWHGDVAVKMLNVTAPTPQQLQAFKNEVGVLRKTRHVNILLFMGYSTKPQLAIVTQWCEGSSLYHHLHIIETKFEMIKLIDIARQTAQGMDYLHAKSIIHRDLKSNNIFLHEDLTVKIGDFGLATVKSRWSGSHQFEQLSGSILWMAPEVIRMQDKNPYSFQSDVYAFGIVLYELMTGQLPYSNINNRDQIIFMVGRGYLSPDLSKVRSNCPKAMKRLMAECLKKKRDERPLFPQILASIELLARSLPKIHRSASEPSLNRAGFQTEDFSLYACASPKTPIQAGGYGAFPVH
Chain of PKBβ(h) (P31751 whole entry): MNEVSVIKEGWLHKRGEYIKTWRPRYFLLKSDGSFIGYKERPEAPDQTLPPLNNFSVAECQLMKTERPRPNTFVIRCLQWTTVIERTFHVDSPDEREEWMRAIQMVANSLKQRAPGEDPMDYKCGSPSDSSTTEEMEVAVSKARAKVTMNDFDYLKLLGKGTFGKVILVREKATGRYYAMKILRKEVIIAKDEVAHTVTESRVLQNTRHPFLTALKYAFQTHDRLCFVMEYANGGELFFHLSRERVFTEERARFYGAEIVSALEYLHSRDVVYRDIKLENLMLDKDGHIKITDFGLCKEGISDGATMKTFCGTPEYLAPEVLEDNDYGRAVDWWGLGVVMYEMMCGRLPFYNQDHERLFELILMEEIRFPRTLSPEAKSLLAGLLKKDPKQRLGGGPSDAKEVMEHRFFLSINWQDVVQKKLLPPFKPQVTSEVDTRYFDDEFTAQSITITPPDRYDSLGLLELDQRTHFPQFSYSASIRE
Chain of IKKβ (O14920 whole entry): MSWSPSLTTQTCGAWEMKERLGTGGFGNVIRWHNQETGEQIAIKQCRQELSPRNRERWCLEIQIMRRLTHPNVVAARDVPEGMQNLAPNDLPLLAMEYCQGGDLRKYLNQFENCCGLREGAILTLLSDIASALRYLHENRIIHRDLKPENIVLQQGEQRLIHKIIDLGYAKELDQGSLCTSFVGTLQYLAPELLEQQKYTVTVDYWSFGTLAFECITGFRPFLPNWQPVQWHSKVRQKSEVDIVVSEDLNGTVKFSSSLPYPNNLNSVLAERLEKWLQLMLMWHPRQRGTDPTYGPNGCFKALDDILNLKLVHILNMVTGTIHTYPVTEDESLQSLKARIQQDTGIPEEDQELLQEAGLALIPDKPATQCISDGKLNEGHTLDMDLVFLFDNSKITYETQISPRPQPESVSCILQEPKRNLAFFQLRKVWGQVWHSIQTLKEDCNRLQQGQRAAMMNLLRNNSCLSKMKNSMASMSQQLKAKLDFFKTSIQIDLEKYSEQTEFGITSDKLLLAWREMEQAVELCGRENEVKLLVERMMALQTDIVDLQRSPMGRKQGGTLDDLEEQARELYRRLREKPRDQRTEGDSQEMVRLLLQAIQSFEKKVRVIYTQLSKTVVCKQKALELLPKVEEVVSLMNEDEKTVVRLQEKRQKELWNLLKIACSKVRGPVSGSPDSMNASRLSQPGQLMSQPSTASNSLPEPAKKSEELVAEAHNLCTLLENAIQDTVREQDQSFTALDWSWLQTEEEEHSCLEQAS

SMILES: CCn1nc(C#Cc2cc(C(=O)Nc3ccc(CN4CCN(C)CC4)c(C(F)(F)F)c3)ccc2C)c2c(N)ncnc21 [Compound 3]
- pIC50 [1]: 7.52
- remaining activity at 10 µM [2]: 5%
- remaining activity at 10 µM ([3]; Fyn(h), compound at 10 μM, read-out: The percentage of the remaining active protein): 0%
- pIC50 ([3]; Fyn, ATP at Km): 8.30
- pIC50 [4]: 7.72
- pIC50 [5]: 8.52
- remaining activity at 10 µM [6]: 0%
- pIC50 [7]: 6.89
- remaining activity at 10 µM ([8]; BTK(h), compound at 10 μM, read-out: The percentage of the remaining active protein): -3%
- pIC50 ([8]; Btk, ATP at Km): 7.17
- pIC50 [9]: 6.79
- remaining activity at 10 µM ([10]; PDGFRα(h), compound at 10 μM, read-out: The percentage of the remaining active protein): 5%
- pIC50 ([10]; PDGFRα, ATP at Km): 6.05
- remaining activity at 10 µM [11]: 3%
- remaining activity at 10 µM [12]: 105%
- remaining activity at 10 µM [13]: 91%
- remaining activity at 10 µM [14]: 23%
- remaining activity at 10 µM [15]: 0%
- remaining activity at 10 µM [16]: 130%
- remaining activity at 10 µM [17]: 96%
- remaining activity at 10 µM [18]: 57%
- remaining activity at 10 µM [19]: 46%
- remaining activity at 10 µM [20]: 17%
- remaining activity at 10 µM [21]: 52%
- remaining activity at 10 µM [22]: 101%
- remaining activity at 10 µM [23]: 4%
- remaining activity at 10 µM [24]: 93%
- pIC50 [25]: 7.89
- pIC50 ([26]; Homo sapiens, MDA-MB-435, 72 h, read-out: Proliferation inhibitory activity IC50): 8.06
- pIC50 ([26]; read-out: Proliferative inhibitory activity MDA-MB-435 (IC50 class)): > 7.00
- inhibitory effect compared to positive control [27]: better than the positive control (paclitaxel)
- tumor growth inhibition [27]: significantly inhibited
- pIC50 [28]: > 9.00
- pIC50 ([29]; B-Raf, ATP at Km): 7.04
- remaining activity at 10 µM [29, 32]: 5%
- pIC50 [30]: 7.80
- pIC50 [31]: 8.22
- remaining activity at 10 µM [31, 32]: 0%
